The results in this text go back to US6632798B2, “Methods for inhibiting angiogenesis” (Antigen Biologicals Corporation, priority 2001, dated 2003).

Marks after values point to notes of the source that are not given here.

Data set [1] has as its system blood vessels in the chick chorioallantoic membrane (CAM). As to the kind of experiment: chick chorioallantoic membrane (CAM) assay, injection into the yolk sac. The following applies: for Number Nodes + Ends (mean ± S.E.): control 271 ± 25, P < 0.0001 vs control. The data set is classed as in vivo, chick embryo. The source says:
Compounds suitable for use in the methods of the present invention can readily be identified using in vitro and in vivo screening assays. Such assays may screen for the ability of a particular compound to inhibit angiogenesis or the vascularization of endothelial cells in vitro and in vivo. For instance, the chick embryo chorioallantoic membrane (CAM) assay, which is described in more detail below, can be used to screen a given compound for its ability to inhibit vascularization. In the chorioallantoic membrane assay as performed in this invention, fertilized chick embryos are injected with a compound on day 3 or 4. The embryos are then allowed to develop for […] post injection upon which the shell is cracked and the chorioallantoic membrane is photographed. Based on the number of blood vessel nodes and ends present in the CAM the complexity of vascularization can be assessed. This assay can be used to assess the anti-angeogenic properties of the compounds in this invention. It will be readily apparent to those skilled in the art that the compounds in this invention can be administered alone, in the form of a pharmaceutically acceptable salt and/or in the form of a pharmaceutical composition. This example illustrates the anti-angiogenic properties of Oleuropein in the chick chorioallantoic membrane assay (CAM). The endpoint of the CAM assay was a quantitative determination of the number of branch points and ends of blood vessels in the chorioallantoic membrane. Such a quantitation would illustrate the complexity of the blood vasculature in the developing chorioallantoic membrane. The decrease in the complexity of the blood vasculature of the chorioallantoic membrane as a result of the application of Oleuropein indicates its anti-angiogenic properties. The CAM in the developing chick embryo is an excellent in vivo system for studying angiogenesis, because there is ongoing new blood vessel growth. The CAM assay involves the monotering of the blood vasculature of the developing chorioallantoic membrane of live chick embryos. Various CAM assay approaches have been developed. These include the culturing of live chick embryos in Petri dishes under special sterile conditions. Another approach has been to cut a window in the shell of fertilized eggs and directly apply the compound to be studied in the window using a filter paper. We used a modified approach to the CAM assay, which includes a less invasive method for introducing the compound Oleuropein. Fertilized chicken eggs where candled on the third day of development. The blood vasculature and the yolk were identified. A small 1 mm hole was made in the shell. A small gauge needle carrying 0.4 ml of Oleuropein diluted in saline/water was injected directly into the yolk sac. The hole was taped and the eggs were returned to the incubator for further development. After 3 days the eggs were removed and cracked in a white dish and the chorioallantoic membrane was photographed. Control eggs were injected with saline/water. Fresh fertile eggs were incubated for three days in a standard egg incubator. Temperature and humidity were kept constant at 100° F. and 65% respectively. On Day 3, eggs were […] using a police flash light. Embryo and yolk were identified. The surface of the shell was cleaned with an alcohol swab. The egg shell was pierced with a lancet making a 1 millimeter hole. A needle was used to withdraw 0.5 ml of yolk. A 0.5 ml injection was administered directly into the yolk sack. […] Experimental eggs were injected with a 0.1% and 1.0% concentration of Oleuropein. Control eggs were injected with an equivalent amount of water. After injection the hole was covered with a small piece of scotch tape and the eggs were returned to the incubator for further development. On day 3 post injection the eggs were removed from the incubator and […]. They were cracked gently using a butter knife over a white dish. Embryo and CAM were carefully layed out for observation and photography. […]

Data set [2] deals with induced blood vasculature of the adult mouse ear. As to the kind of experiment: adult mouse ear model, blood vessel growth induced by sodium hydroxide burn. The data set is classed as in vivo. The following applies: 0.025 grams in 0.25 ml PBS intraperitoneally once a day, 3 days before and 3 days after NaOH burn, FIG. 7. The source says:
This example illustrates the anti-angiogenic properties of Oleuropein in the adult mouse ear model. The endpoint of the adult mouse ear model assay was a direct visualization of the number of branch points and ends of blood vessels. Such visualization would illustrate the complexity of the blood vasculature in the adult mouse ear. The decrease in the complexity of the induced blood vasculature of the adult mouse ear as a result of the application of Oleuropein would indicate its anti-angiogenic properties.
In the previous model (the CAM in the developing chick embryo), although an excellent in vivo system for studying angiogenesis, because there is ongoing new blood vessel growth in the growing embryo, we tested another model in assessing whether Oleuropein can inhibit induced blood vessel growth in an adult mammal. The model we chose to use was the adult mouse ear. The mouse ear is vascularized and is thin enough to be directly visualized by a light microscope. If a stimulus is applied to the adult mouse ear existing blood vessels are capable of sprouting new ones (angiogenesis). Using this model anti-angiogenic compounds can be tested for their effects. We applied a sodium hydroxide burn, which stimulated the existing blood vessels in the adult mouse ear to sprout new blood vessels. […]

[3] abbreviates: Oleuropein treated eggs, FIG. 5.

Turning to `C/C=C1/[C@H](O[C@@H]2O[C@H](CO)[C@@H](O)[C@H](O)[C@H]2O)OC=C(C(=O)OC)[C@H]1CC(=O)OCCc1ccc(O)c(O)c1` [Oleuropein], the “effect on CAM vasculature (photographs)” value in data set [1] (0.93 μmol/egg, FIG. 2 vs control FIG. 3) is “potently inhibited CAM vasculature”; in data set [1] (9.3 μmol/egg, FIG. 1 vs control FIG. 3), “number of blood vessels is greatly diminished and branching is less complex than in controls”. Besides, the entries for the “% Inhibition of blood vessel growth compared to control” value in data set [1] (0.93 μmole/egg) and in data set [1] (9.3 μmole/egg) were 73% and 84%, respectively. For the same compound, the figures for the “Number Nodes + Ends (mean ± S.E.)” value in data set [1] (0.93 μmole/egg into yolk sac of three-day-old chick embryos) and in data set [1] (9.3 μmole/egg into yolk sac of three-day-old chick embryos) were 72 ± 11^b and 44 ± 5.3^a, respectively. Besides, the “CAM diameter, smaller than control CAM” value in data set [1] (setting [3]) is given as “about 50%”. The “embryo size, smaller than untreated control embryos” value in data set [1] (setting [3]) was “about 60%”. Besides, the embryo viability entry in data set [1] (higher dose of Oleuropein) is recorded as “did not effect embryo viability”. The “inhibition of induced blood vessel growth in the ear (photographs)” value in data set [2] was “potently inhibited existing blood vessels from sprouting”.
